Measured values: patent publication US12139520B2 (priority 2020, dated 2024)
pEC50: −log10 of the molar value. Bridge positions count the residues as written; N and C are the ends. Square brackets hold non-standard residues; d marks the D form. Peptide text beside a SMILES is read from it. Hyp = O=C(O)[C@@H]1C[C@@H](O)CN1; Cit = NC(=O)NCCC[C@H](N)C(=O)O

What was measured:
hAM1 receptor = hAM1 receptor (Homo sapiens, UniProt O60895+Q16602); experiment: cAMP assay for in vitro receptor activation, hAM1-R; format: cell-based; details: cAMP assay, hAM1 receptor; read-out: hAM1R EC50
Chain of hAM1 receptor (Q16602 23-461): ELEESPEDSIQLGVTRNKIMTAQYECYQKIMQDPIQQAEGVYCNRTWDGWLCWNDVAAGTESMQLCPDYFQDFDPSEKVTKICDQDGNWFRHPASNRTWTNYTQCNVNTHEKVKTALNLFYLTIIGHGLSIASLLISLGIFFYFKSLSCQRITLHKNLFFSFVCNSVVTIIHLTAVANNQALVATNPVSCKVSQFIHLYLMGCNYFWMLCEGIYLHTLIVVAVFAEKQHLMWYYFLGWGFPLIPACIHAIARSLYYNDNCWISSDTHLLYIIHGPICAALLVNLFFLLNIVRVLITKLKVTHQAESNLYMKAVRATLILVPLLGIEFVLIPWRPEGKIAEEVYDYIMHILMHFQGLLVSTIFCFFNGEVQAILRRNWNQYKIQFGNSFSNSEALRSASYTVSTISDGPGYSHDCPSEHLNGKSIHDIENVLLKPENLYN
Chain of hAM1 receptor (O60895 43-175 partner): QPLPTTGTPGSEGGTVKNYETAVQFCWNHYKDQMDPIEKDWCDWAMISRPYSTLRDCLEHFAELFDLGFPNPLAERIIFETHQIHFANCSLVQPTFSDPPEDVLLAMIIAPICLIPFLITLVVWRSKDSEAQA
How it was run: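 Stable hAM1 cells (monoclonal) plated 8000/well; buffer DPBS, 0.05% casein, 0.5 mM IBMX; cAMP read-out.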

hAMY3 receptor = molecular target: T1, hAMY3 receptor (Homo sapiens, UniProt O60896+P30988); experiment: cAMP assay for in vitro receptor activation, hAMY3-R; format: cell-based; details: cAMP assay, hAMY3 receptor; read-out: hAMY3R EC50
T1 sequence (P30988 25-474): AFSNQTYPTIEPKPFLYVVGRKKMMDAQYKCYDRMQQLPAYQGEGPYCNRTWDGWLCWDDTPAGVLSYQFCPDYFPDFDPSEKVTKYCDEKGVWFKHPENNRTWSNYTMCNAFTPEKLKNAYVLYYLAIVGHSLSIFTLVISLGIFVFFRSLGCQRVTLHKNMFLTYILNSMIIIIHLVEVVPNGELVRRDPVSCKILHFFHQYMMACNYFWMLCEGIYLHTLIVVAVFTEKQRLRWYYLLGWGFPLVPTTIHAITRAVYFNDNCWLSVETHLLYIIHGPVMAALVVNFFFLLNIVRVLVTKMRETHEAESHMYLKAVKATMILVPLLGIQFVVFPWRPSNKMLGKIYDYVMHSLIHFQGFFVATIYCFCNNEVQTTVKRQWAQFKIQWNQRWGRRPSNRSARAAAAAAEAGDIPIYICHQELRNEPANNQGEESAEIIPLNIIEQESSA
T1 sequence (O60896 24-148 partner): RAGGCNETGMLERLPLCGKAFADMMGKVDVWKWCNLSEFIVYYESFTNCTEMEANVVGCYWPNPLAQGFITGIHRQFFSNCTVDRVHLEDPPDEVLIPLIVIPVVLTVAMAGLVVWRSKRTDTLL
How it was run: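 Accumulated cAMP was detected by time-resolved FRET one hour after reagent addition. Beforehand, hAMY3-R-overexpressing monoclonal cells (2000/well, DPBS, 0.05% casein, 0.5 mM IBMX) received graded doses of compound for 30 min at room temperature; human amylin served as positive control.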

[1] = Physical stability of peptide analogues (Thioflavin T fibrillation); format: physicochemical; details: maximum ThT signal normalized between hAMY maximum and buffer background; 40° C., shaking, four days; pH 7 per table title
How it was run: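 1 h in 50 mM NaOAc pH 4 / 50 mM NaPi pH 7; + ThT 4 μM final; 40 °C, 700 rpm linear shake 5 min pre-read; ex 450, em 480 nm q10 min × 4 d; LOESS smoothing; max signal normalised to hAMY max vs buffer blank.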

pEC50 (hAM1 receptor) | pEC50 (hAMY3 receptor) | Max ThT signal (%) [1] [%] | Structure (SMILES)
< 5.30 | 10.35 | 16.850 | CC[C@H](C)[C@H](NC(=O)[C@H](CCC(N)=O)NC(=O)[C@H](Cc1c[nH]cn1)NC(=O)[C@H](C)NC(=O)[C@H](CC(C)C)NC(=O)[C@H](CCCNC(N)=O)NC(=O)[C@H](CCC(N)=O)NC(=O)[C@@H](NC(=O)[C@@H](NC(=O)[C@@H]1CSSC[C@H](NC(=O)CN)C(=O)N[C@@H](CCCNC(=N)N)C(=O)N[C@@H](Cc2ccccc2)C(=O)NCC(=O)N[C@@H]([C@@H](C)O)C(=O)N1)[C@@H](C)O)C(C)C)C(=O)N[C@@H](Cc1ccc(O)cc1)C(=O)N[C@@H](CCC(N)=O)C(=O)N[C@@H](Cc1ccccc1)C(=O)N[C@H](C(=O)N[C@@H](CC(=O)O)C(=O)N[C@@H](CCCCN)C(=O)N[C@@H](CC(=O)O)C(=O)N[C@@H](CCCCN)C(=O)N[C@@H](CC(=O)O)C(=O)N[C@@H](CC(N)=O)C(=O)N[C@H](C(=O)N[C@@H](C)C(=O)N1CCC[C@H]1C(=O)N[C@@H](CCCNC(=N)N)C(=O)N[C@H](C(=O)N[C@@H](CCCCN)C(=O)N[C@H](C(=O)N[C@@H](CO)C(=O)N1CCC[C@H]1C(=O)N[C@@H](CCC(N)=O)C(=O)NCC(=O)N1C[C@H](O)C[C@H]1C(N)=O)[C@@H](C)CC)[C@@H](C)O)C(C)C)[C@@H](C)O [compound 294] (H-GCRFGTCTVQ[Cit]LAHQIYQFTDKDKDNVAPRTKISPQG[Hyp]-NH2; disulfide 2-7)
< 5.30 | 10.15 | 24.350 | CC[C@H](C)[C@H](NC(=O)[C@H](CCC(N)=O)NC(=O)[C@H](Cc1c[nH]cn1)NC(=O)[C@H](C)NC(=O)[C@H](CC(C)C)NC(=O)[C@H](Cc1c[nH]c2ccccc12)NC(=O)[C@H](CCC(N)=O)NC(=O)[C@@H](NC(=O)[C@@H](NC(=O)[C@@H]1CSSC[C@H](NC(=O)CN)C(=O)N[C@@H](CCCNC(=N)N)C(=O)N[C@@H]([C@@H](C)O)C(=O)NCC(=O)N[C@@H]([C@@H](C)O)C(=O)N1)[C@@H](C)O)C(C)C)C(=O)N[C@@H](Cc1ccc(O)cc1)C(=O)N[C@@H](CCC(N)=O)C(=O)N[C@@H](Cc1ccccc1)C(=O)N[C@H](C(=O)N[C@@H](CC(=O)O)C(=O)N[C@@H](CCCCN)C(=O)N[C@@H](CC(=O)O)C(=O)N[C@@H](CCCCN)C(=O)N[C@@H](CC(=O)O)C(=O)N[C@@H](CC(N)=O)C(=O)N[C@H](C(=O)N[C@@H](C)C(=O)N1CCC[C@H]1C(=O)N[C@@H](CCCNC(=N)N)C(=O)N[C@H](C(=O)N[C@@H](CC(N)=O)C(=O)N[C@H](C(=O)N[C@@H](CO)C(=O)N1CCC[C@H]1C(=O)N[C@@H](CC(N)=O)C(=O)NCC(=O)N1C[C@H](O)C[C@H]1C(N)=O)C(C)C)[C@@H](C)O)C(C)C)[C@@H](C)O [compound 358] (H-GCRTGTCTVQWLAHQIYQFTDKDKDNVAPRTNVSPNG[Hyp]-NH2; disulfide 2-7; N-terminus assumed)
< 5.30 | 10.04 | 17.400 | CC[C@H](C)[C@H](NC(=O)[C@H](CCC(N)=O)NC(=O)[C@H](Cc1c[nH]cn1)NC(=O)[C@H](C)NC(=O)[C@H](CC(C)C)NC(=O)[C@H](Cc1c[nH]c2ccccc12)NC(=O)[C@H](CCC(N)=O)NC(=O)[C@@H](NC(=O)[C@@H](NC(=O)[C@@H]1CSSC[C@H](NC(=O)CN)C(=O)N[C@@H](CCCNC(=N)N)C(=O)N[C@@H]([C@@H](C)O)C(=O)NCC(=O)N[C@@H]([C@@H](C)O)C(=O)N1)[C@@H](C)O)C(C)C)C(=O)N[C@@H](Cc1ccc(O)cc1)C(=O)N[C@@H](CCC(N)=O)C(=O)N[C@@H](Cc1ccccc1)C(=O)N[C@H](C(=O)N[C@@H](CC(=O)O)C(=O)N[C@@H](CCCCN)C(=O)N[C@@H](CC(=O)O)C(=O)N[C@@H](CCCCN)C(=O)N[C@@H](CC(=O)O)C(=O)N[C@@H](CC(N)=O)C(=O)N[C@H](C(=O)N[C@@H](C)C(=O)N1CCC[C@H]1C(=O)N[C@@H](CCCNC(=N)N)C(=O)N[C@H](C(=O)N[C@@H](CCCCN)C(=O)N[C@H](C(=O)NCC(=O)N1CCC[C@H]1C(=O)N[C@@H](CCC(N)=O)C(=O)NCC(=O)N[C@@H](Cc1ccc(O)cc1)C(N)=O)C(C)C)[C@@H](C)O)C(C)C)[C@@H](C)O [compound 354] (H-GCRTGTCTVQWLAHQIYQFTDKDKDNVAPRTKVGPQGY-NH2; disulfide 2-7; N-terminus assumed)
< 5.30 | 9.82 | 6.500 | CC[C@H](C)[C@H](NC(=O)[C@H](CCC(N)=O)NC(=O)[C@H](Cc1c[nH]cn1)NC(=O)[C@H](C)NC(=O)[C@H](CC(C)C)NC(=O)[C@H](CCCNC(=N)N)NC(=O)[C@H](CCC(N)=O)NC(=O)[C@@H](NC(=O)[C@@H](NC(=O)[C@@H]1CSSC[C@H](NC(=O)CN)C(=O)N[C@@H](CCCNC(=N)N)C(=O)N[C@@H]([C@@H](C)O)C(=O)NCC(=O)N[C@@H]([C@@H](C)O)C(=O)N1)[C@@H](C)O)C(C)C)C(=O)N[C@@H](Cc1c[nH]c2ccccc12)C(=O)N[C@@H](CCC(N)=O)C(=O)N[C@@H](Cc1ccccc1)C(=O)N[C@H](C(=O)N[C@@H](CC(=O)O)C(=O)N[C@@H](CCCCN)C(=O)N[C@@H](Cc1ccccc1)C(=O)N[C@@H](CCCCN)C(=O)N[C@@H](CC(=O)O)C(=O)N[C@@H](CC(N)=O)C(=O)N[C@H](C(=O)N[C@@H](C)C(=O)N1CCC[C@H]1C(=O)N[C@@H](CCCNC(=N)N)C(=O)N[C@@H](CO)C(=O)N[C@@H](CCCCN)C(=O)N[C@H](C(=O)N[C@@H](CO)C(=O)N1CCC[C@H]1C(=O)N[C@@H](CCC(N)=O)C(=O)N[C@H](C(=O)N1C[C@H](O)C[C@H]1C(N)=O)[C@@H](C)O)[C@@H](C)CC)C(C)C)[C@@H](C)O [compound 213] (H-GCRTGTCTVQRLAHQIWQFTDKFKDNVAPRSKISPQT[Hyp]-NH2; disulfide 2-7)
< 5.30 | 10.85 | 27.500 | CC[C@H](C)[C@H](NC(=O)[C@H](CCC(N)=O)NC(=O)[C@H](Cc1c[nH]cn1)NC(=O)[C@H](C)NC(=O)[C@H](CC(C)C)NC(=O)[C@H](Cc1c[nH]c2ccccc12)NC(=O)[C@H](CCC(N)=O)NC(=O)[C@@H](NC(=O)[C@@H](NC(=O)[C@@H]1CSSC[C@H](NC(=O)CN)C(=O)N[C@@H](CCCNC(=N)N)C(=O)N[C@@H]([C@@H](C)O)C(=O)NCC(=O)N[C@@H]([C@@H](C)O)C(=O)N1)[C@@H](C)O)C(C)C)C(=O)N[C@@H](Cc1ccc(O)cc1)C(=O)N[C@@H](CCC(N)=O)C(=O)N[C@@H](Cc1ccccc1)C(=O)N[C@H](C(=O)N[C@@H](CC(=O)O)C(=O)N[C@@H](CCCCN)C(=O)N[C@@H](CC(=O)O)C(=O)N[C@@H](CCCCN)C(=O)N[C@@H](CC(=O)O)C(=O)N[C@@H](CC(N)=O)C(=O)N[C@H](C(=O)N[C@@H](C)C(=O)N1CCC[C@H]1C(=O)N[C@@H](CCCNC(=N)N)C(=O)N[C@H](C(=O)N[C@@H](CC(N)=O)C(=O)N[C@H](C(=O)NCC(=O)N1CCC[C@H]1C(=O)N[C@@H](CCC(N)=O)C(=O)NCC(=O)N1C[C@H](O)C[C@H]1C(N)=O)C(C)C)[C@@H](C)O)C(C)C)[C@@H](C)O [compound 323] (H-GCRTGTCTVQWLAHQIYQFTDKDKDNVAPRTNVGPQG[Hyp]-NH2; disulfide 2-7; N-terminus assumed)
< 5.30 | 10.25 | 8.950 | CC[C@H](C)[C@H](NC(=O)[C@H](CCC(N)=O)NC(=O)[C@H](Cc1c[nH]cn1)NC(=O)[C@H](C)NC(=O)[C@H](CC(C)C)NC(=O)[C@H](CCCNC(N)=O)NC(=O)[C@H](CCC(N)=O)NC(=O)[C@@H](NC(=O)[C@@H](NC(=O)[C@@H]1CSSC[C@H](NC(=O)[C@@H](N)CCCCN)C(=O)N[C@@H](CC(N)=O)C(=O)N[C@@H]([C@@H](C)O)C(=O)N[C@@H](C)C(=O)N[C@@H]([C@@H](C)O)C(=O)N1)[C@@H](C)O)C(C)C)C(=O)N[C@@H](Cc1ccc(O)cc1)C(=O)N[C@@H](CCC(N)=O)C(=O)N[C@@H](C)C(=O)N[C@H](C(=O)N[C@@H](CC(=O)O)C(=O)N[C@@H](CCCCN)C(=O)N[C@@H](CC(=O)O)C(=O)N[C@@H](CCCCN)C(=O)N[C@@H](CC(=O)O)C(=O)N[C@@H](CC(N)=O)C(=O)N[C@H](C(=O)N[C@@H](C)C(=O)N1CCC[C@H]1C(=O)N1CCC[C@H]1C(=O)N[C@H](C(=O)N[C@@H](CC(N)=O)C(=O)N[C@H](C(=O)NCC(=O)N[C@@H](CO)C(=O)N[C@@H](CC(N)=O)C(=O)NCC(=O)N1C[C@H](O)C[C@H]1C(N)=O)C(C)C)[C@@H](C)O)C(C)C)[C@@H](C)O [compound 276] (H-KCNTATCTVQ[Cit]LAHQIYQATDKDKDNVAPPTNVGSNG[Hyp]-NH2; disulfide 2-7; N-terminus assumed)
